Earlier results on 22 compounds are cited in paper PMC9959726 (Molecules, 2023).

Read-outs that look alike come from different tables or passages of the source.

One may read the IC50 as the point on the concentration scale where inhibition reaches its midpoint.

The conditions of data set [1]: for antioxidant activity: compounds obtained from P. saxifraga; for antioxidant property: from P. brachycarpa.
Data set [2] concerns DNA. The settings on record: compounds obtained from P. saxifraga.
Data set [3] has as its system CYP-1A2. Also on record: method as in PMID 34377680. The settings on record: for Effect on CYP 1A2: from P. anisum root.
In data set [4] the test system is α-glycosidase. The settings on record: for α-glucosidase inhibitory: from P. candolleana; for α-glucosidase inhibition: from P. anthriscoides.
The subject of data set [5] is pestiferous pests. Also on record: method as in PMID 29029251, PMID 29029346.
The subject of data set [6] is BChE. The following applies: from P. anthriscoides.
For data set [7], the system named is AChE. The following applies: from P. anthriscoides.
Data set [8] has as its system α-amylase. The settings on record: from P. anthriscoides.
For data set [9] the following is noted: from P. thellungiana.
For data set [10], the system named is BEAS-2B and HepG2 cells. The following applies: PM2.5-induced BEAS-2B and HepG2 cells.
The subject of data set [11] is MCF-7 cells. Also noted: method as in PMID 29959054. The following applies: from P. haussknechtii fruit; read-out: Cytotoxicity against MCF-7 cell, IC50.
On the set-up of data set [12]: method as in PMID 30704124.

Take `C=CCc1cc2c(c(OC)c1OC)OCO2` [compound 51, dillapiole]: in [1], the antioxidant activity entry is recorded as “antioxidant activity”. The DNA protection potential result in data set [2] is reported as “DNA protection potential”.

Consider `COc1c2ccoc2cc2oc(=O)ccc12` [Bergapten (256)], for which the “Effect on CYP 1A2” value in data set [3] was “Inhibitory effects on CYP 1A2”.

In the case of `CCC(C=CC(C)C1CCC2C3CC=C4CC(OC(C)=O)CCC4(C)C3CCC12C)C(C)C` (stereo not drawn) [compound 294, Stigmasta-5, 22-dien-3-olacetate], the antioxidant entry in data set [1] (from P. candolleana) is reported as “effective antioxidant”. Also, in data set [4], the α-glucosidase inhibitory entry was “α-glucosidase inhibitory”.

In the case of `COc1c2ccoc2cc2oc(=O)ccc12` [compound 256, bergapten], in data set [3], the CYP-1A2 inhibition entry is reported as “inhibitors”.

For the compound `COc1c2ccoc2c(OC)c2oc(=O)ccc12` [compound 274, isopimpinellin], the CYP-1A2 inhibition entry in data set [3] is on record as “inhibitors”.

For p-anisaldehyde [compound 47], in data set [1], the antioxidant activity entry was “antioxidant activity”. For the same compound, in data set [5], the reproduction of pests result is given as “inhibiting the reproduction of pests”. In addition, in [2], the DNA protection potential result was “DNA protection potential”.

In the case of `COc1ccc(C=CC=O)cc1` [compound 50, 4-methoxycinnamaldehyde], the antioxidant activity result in [1] was “antioxidant activity”. Moreover, the DNA protection potential result in [2] is on record as “DNA protection potential”.

For `CCC(=O)c1ccc(OC)cc1O` [compound 49, 1-(2-hydroxy-4-methoxyphenyl)propan1-one], in data set [1], the antioxidant activity entry was “antioxidant activity”. In data set [2], the DNA protection potential entry is recorded as “DNA protection potential”.

Take `O=C(O)C(O)Cc1ccccc1` (stereo not drawn) [compound 337, 3-phenyllactic acid]: the BChE inhibition entry in data set [6] is “inhibiting”. Also, the AChE inhibition entry in data set [7] is recorded as “inhibiting”. Further, the antioxidant result in data set [1] (from P. anthriscoides) is reported as “proven antioxidant”. Also, the α-glucosidase inhibition entry in data set [4] is given as “inhibiting”. For the same compound, the α-amylase inhibition entry in data set [8] was “inhibiting”.

In the case of `COC(=O)/C=C/c1ccccc1O` [compound 48, methyl-O-coumarate], the antioxidant activity result in data set [1] is on record as “antioxidant activity”. In data set [2], the DNA protection potential entry is reported as “DNA protection potential”.

As to `O=C(O)CC(O)(CC(=O)O)C(=O)O` [compound 338, citric acid], in [6], the BChE inhibition result is “inhibiting”. Further, the AChE inhibition result in data set [7] was “inhibiting”. Moreover, the antioxidant result in data set [1] (from P. anthriscoides) is reported as “proven antioxidant”. Moreover, the α-glucosidase inhibition entry in data set [4] is reported as “inhibiting”. Further, in data set [8], the α-amylase inhibition result was “inhibiting”.

In the case of `CCOC(c1cc(OC)ccc1O)C(C)O` (stereo not drawn) [compound 1, 2-(1′-ethoxy-2′-hydroxy)propyl-4-methoxyphenol], the antihypertensive activity result in data set [9] was “significant antihypertensive activity”.

As for `CC[C@H](/C=C/[C@@H](C)[C@H]1CC[C@H]2[C@@H]3CC=C4C[C@@H](O)CC[C@]4(C)[C@H]3CC[C@]12C)C(C)C` [compound 296, stigmasterol], the antioxidant result in data set [1] (from P. candolleana) is “effective antioxidant”. For the same compound, the α-glucosidase inhibitory result in [4] was “α-glucosidase inhibitory”.

For the compound `CC[C@H](CC[C@@H](C)[C@H]1CC[C@H]2[C@@H]3CC=C4C[C@@H](O[C@@H]5O[C@H](CO)[C@@H](O)[C@H](O)[C@H]5O)CC[C@]4(C)[C@H]3CC[C@]12C)C(C)C` [compound 295, daucosterol], in data set [1] (from P. candolleana), the antioxidant result was “effective antioxidant”. For the same compound, in data set [4], the α-glucosidase inhibitory result is recorded as “α-glucosidase inhibitory”.

Take `CC(=O)C(C)CCC(C)C1CCC2(C)C3CCC4C(C)(C)CCCC4(C)C3CCC12C` (stereo not drawn) [compound 297, 24ζ-Methyl-5R-lanosta-25-one]: in [1], the antioxidant property entry is recorded as “antioxidant property”.

Consider `CC(=O)[C@H]1CC[C@H]2[C@@H]3CC=C4C[C@@H](O)CC[C@]4(C)[C@H]3CC[C@]12C` [compound 298, pregnenolone], for which the antioxidant property entry in [1] is reported as “antioxidant property”.

Regarding `CC=Cc1ccc(OC)cc1` (stereo in doubt) [compound 40, cis-anethole], the “reduction of IL-8 level” value in data set [10] was 87%.

In the case of `CC(C)=CC(C)(O)C1OC(=O)Cc2oc(C)cc(=O)c21` (stereo not drawn) [Pimpinelol (205)], the IC50 in [11] is 1.06 µM.

As for `COc1c2ccoc2c(OC)c2oc(=O)ccc12` [isopimpinellin (274)], the “Effect on CYP 1A2” value in data set [3] is given as “Inhibitory effects on CYP 1A2”.

`COc1c2occc2cc2ccc(=O)oc12` [methoxsalen (275)]: the “Effect on CYP 1A2” value in data set [3] is reported as “Inhibitory effects on CYP 1A2”.

Consider umbelliprenin [compound 276], for which the skin whitening entry in data set [12] was “potential skin-whitening agent”.

Regarding `CCOC(c1cc(OC)ccc1OC(=O)C(C)CC)C(C)O` (stereo not drawn) [compound 2, 2-(1′-ethoxy-2′-hydroxy)propyl-4-methoxyphenyl-2-methyl-butyrate], in data set [9], the antihypertensive activity entry is listed as “significant antihypertensive activity”.
